We go through 36 compounds from US9242933B2 (AbbVie Deutschland GmbH & Co. KG, priority 2007, dated 2016).

pEC50: −log10 of the molar value.

The target of the assay is T1, human mGlu2 receptor (Homo sapiens, UniProt Q14416).
T1 construct: expressed in transfected cells; host or cells: HEK293
T1 sequence (Q14416 19-872): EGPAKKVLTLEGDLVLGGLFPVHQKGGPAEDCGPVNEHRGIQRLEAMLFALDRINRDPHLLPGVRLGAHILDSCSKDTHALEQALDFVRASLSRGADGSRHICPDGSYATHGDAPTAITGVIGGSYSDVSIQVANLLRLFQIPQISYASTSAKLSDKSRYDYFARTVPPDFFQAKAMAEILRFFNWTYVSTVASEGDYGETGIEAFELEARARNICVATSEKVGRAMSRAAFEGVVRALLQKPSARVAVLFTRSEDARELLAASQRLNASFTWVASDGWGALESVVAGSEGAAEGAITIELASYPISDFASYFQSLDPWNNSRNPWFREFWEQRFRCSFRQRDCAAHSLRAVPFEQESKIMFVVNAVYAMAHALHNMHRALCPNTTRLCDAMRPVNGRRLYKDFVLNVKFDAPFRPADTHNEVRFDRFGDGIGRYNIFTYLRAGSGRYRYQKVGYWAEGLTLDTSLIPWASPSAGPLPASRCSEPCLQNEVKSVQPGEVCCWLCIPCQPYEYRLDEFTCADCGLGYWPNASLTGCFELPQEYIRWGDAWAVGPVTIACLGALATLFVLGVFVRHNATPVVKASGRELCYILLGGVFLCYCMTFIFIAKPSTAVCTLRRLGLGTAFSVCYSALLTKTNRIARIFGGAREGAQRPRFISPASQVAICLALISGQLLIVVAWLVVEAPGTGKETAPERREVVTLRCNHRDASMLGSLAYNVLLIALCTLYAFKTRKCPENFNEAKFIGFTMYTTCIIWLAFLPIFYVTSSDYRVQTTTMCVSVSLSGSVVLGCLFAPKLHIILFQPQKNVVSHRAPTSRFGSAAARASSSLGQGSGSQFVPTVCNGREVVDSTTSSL
As to the kind of experiment: FLIPR intracellular Ca2+ assay, potentiation of glutamate response in HEK293 clone expressing mGlu2 receptor, rGLAST and Galpha16. The assay is classed as cell-based. The conditions noted are these: 1 μM glutamate added ten minutes after test compound, HEK293 cells with human mGlu2, rGLAST, Galpha16, read-out: EC50 values of potentiation effect to glutamate. In short, it runs like this:
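HEK293 cells stably expressing human mGlu2, rat GLAST and Gα16 were loaded with 2 µM Fluo-4 AM and intracellular Ca2+ read by FLIPR. Compound added alone (agonism), then with submaximal glutamate (e.g. 1 µM; potentiation). Background-subtracted peaks normalized to 100 µM glutamate response; EC50 from four-parameter fit.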
Turning to `CCCN1Cc2cc(OCc3c[nH]nc3-c3ccc(Cl)cc3)ccc2C1=O` [Example 534, 5-[3-(4-Chloro-phenyl)-1H-pyrazol-4-ylmethoxy]-2-propyl-2,3-dihydro-isoindol-1-one], the negative-log EC50 (pEC50) is above 6.00.

Consider `CCCN1Cc2cc(OCc3c[nH]nc3-c3cccc(Cl)c3)ccc2C1=O` [Example 535, 5-[3-(3-Chloro-phenyl)-1H-pyrazol-4-ylmethoxy]-2-propyl-2,3-dihydro-isoindol-1-one], for which the pEC50 was above 6.00.

Consider `CCCN1Cc2cc(OCc3c[nH]nc3-c3cccc(F)c3)ccc2C1=O` [Example 536, 5-[3-(3-Fluorophenyl)-1H-pyrazol-4-ylmethoxy]-2-propyl-2,3-dihydro-isoindol-1-one], for which the pEC50 is above 6.00.

With `CCCN1Cc2cc(OCc3c[nH]nc3-c3ccccc3)ccc2C1=O` [Example 537, 5-(3-Phenyl-1H-pyrazol-4-ylmethoxy)-2-propyl-2,3-dihydro-isoindol-1-one], the negative logarithm of the EC50 (pEC50) is above 6.00.

As to `O=C1c2ccc(OCc3c[nH]nc3-c3cccc(C(F)(F)F)c3)cc2CN1CCC(F)(F)F` [Example 538, 5-[3-(3-Trifluoromethyl-phenyl)-1H-pyrazol-4-ylmethoxy]-2-(3,3,3-trifluoro-propyl)-2,3-dihydro-isoindol-1-one], the pEC50 is above 6.00.

With `O=C1c2ccc(OCc3c[nH]nc3-c3ccc(Cl)cc3)cc2CN1CCC(F)(F)F` [Example 539, 5-[3-(4-Chloro-phenyl)-1H-pyrazol-4-ylmethoxy]-2-(3,3,3-trifluoro-propyl)-2,3-dihydro-isoindol-1-one], the pEC50 is above 6.00.

In the case of `O=C1c2ccc(OCc3c[nH]nc3-c3ccc(F)cc3)cc2CN1CCC(F)(F)F` [Example 540, 5-[3-(4-Fluorophenyl)-1H-pyrazol-4-ylmethoxy]-2-(3,3,3-trifluoro-propyl)-2,3-dihydro-isoindol-1-one], the pEC50 is above 6.00.

For the compound `O=C1c2ccc(OCc3c[nH]nc3-c3cccc(F)c3)cc2CN1CCC(F)(F)F` [Example 541, 5-[3-(3-Fluorophenyl)-1H-pyrazol-4-ylmethoxy]-2-(3,3,3-trifluoro-propyl)-2,3-dihydro-isoindol-1-one], the pEC50 is above 6.00.

On to `O=C1c2ccc(OCc3c[nH]nc3-c3ccc(C(F)(F)F)cc3)cc2CN1CCC(F)(F)F` [Example 542, 5-[3-(4-Trifluoromethyl-phenyl)-1H-pyrazol-4-ylmethoxy]-2-(3,3,3-trifluoro-propyl)-2,3-dihydro-isoindol-1-one], for which the pEC50 was above 6.00.

As to `O=C1c2ccc(OCc3c[nH]nc3-c3ccccc3)cc2CN1CCC(F)(F)F` [Example 543, 5-(3-Phenyl-1H-pyrazol-4-ylmethoxy)-2-(3,3,3-trifluoro-propyl)-2,3-dihydro-isoindol-1-one], the pEC50 was above 6.00.

As for `CCCCN1Cc2cc(OCc3c[nH]nc3-c3ccc(C(F)(F)F)cc3)ccc2C1=O` [Example 544, 2-Butyl-5-[3-(4-trifluoromethyl-phenyl)-1H-pyrazol-4-ylmethoxy]-2,3-dihydro-isoindol-1-one], the pEC50 is above 6.00.

As to `CCCCN1Cc2cc(OCc3c[nH]nc3-c3cccc(C(F)(F)F)c3)ccc2C1=O` [Example 545, 2-Butyl-5-[3-(3-trifluoromethyl-phenyl)-1H-pyrazol-4-ylmethoxy]-2,3-dihydro-isoindol-1-one], the pEC50 was above 6.00.

In the case of `CCCCN1Cc2cc(OCc3c[nH]nc3-c3ccc(Cl)cc3)ccc2C1=O` [Example 546, 2-Butyl-5-[3-(4-chloro-phenyl)-1H-pyrazol-4-ylmethoxy]-2,3-dihydro-isoindol-1-one], the negative logarithm of the EC50 (pEC50) was above 6.00.

On to `CCCCN1Cc2cc(OCc3c[nH]nc3-c3ccc(Cl)c(Cl)c3)ccc2C1=O` [Example 547, 2-Butyl-5-[3-(3,4-dichloro-phenyl)-1H-pyrazol-4-ylmethoxy]-2,3-dihydro-isoindol-1-one], for which the pEC50 is above 6.00.

As to `CCCCN1Cc2cc(OCc3c[nH]nc3-c3ccc(F)cc3)ccc2C1=O` [Example 548, 2-Butyl-5-[3-(4-fluorophenyl)-1H-pyrazol-4-ylmethoxy]-2,3-dihydro-isoindol-1-one], the pEC50 is above 6.00.

For the compound `CCCCN1Cc2cc(OCc3c[nH]nc3-c3cccc(Cl)c3)ccc2C1=O` [Example 549, 2-Butyl-5-[3-(3-chloro-phenyl)-1H-pyrazol-4-ylmethoxy]-2,3-dihydro-isoindol-1-one], the negative logarithm of the EC50 (pEC50) is above 6.00.

Take `CCCCN1Cc2cc(OCc3c[nH]nc3-c3cccc(F)c3)ccc2C1=O` [Example 550, 2-Butyl-5-[3-(3-fluorophenyl)-1H-pyrazol-4-ylmethoxy]-2,3-dihydro-isoindol-1-one]: the pEC50 was above 6.00.

In the case of `CCCCN1Cc2cc(OCc3c[nH]nc3-c3ccccc3)ccc2C1=O` [Example 551, 2-Butyl-5-(3-phenyl-1H-pyrazol-4-ylmethoxy)-2,3-dihydro-isoindol-1-one], the pEC50 is above 6.00.

For the compound `O=C1c2ccc(OCc3c[nH]nc3-c3ccc(C(F)(F)F)cc3)cc2CN1CCCC(F)(F)F` [Example 552, 2-(4,4,4-Trifluoro-butyl)-5-[3-(4-trifluoromethyl-phenyl)-1H-pyrazol-4-ylmethoxy]-2,3-dihydro-isoindol-1-one], the negative logarithm of the EC50 (pEC50) was above 6.00.

With `O=C1c2ccc(OCc3c[nH]nc3-c3ccccc3)cc2CN1CCCC(F)(F)F` [Example 553, 5-(3-Phenyl-1H-pyrazol-4-ylmethoxy)-2-(4,4,4-trifluoro-butyl)-2,3-dihydro-isoindol-1-one], the pEC50 was above 6.00.

On to `O=C1c2ccc(OCc3c[nH]nc3-c3ccc(Cl)c(Cl)c3)cc2CN1CCCC(F)(F)F` [Example 554, 5-[3-(3,4-dichloro-phenyl)-1H-pyrazol-4-ylmethoxy]-2-(4,4,4-trifluoro-butyl)-2,3-dihydro-isoindol-1-one], for which the pEC50 is above 6.00.

For the compound `CCN1Cc2cc(OCc3c[nH]nc3-c3cccc(C(F)(F)F)c3)ccc2C1=O` [Example 558, 2-Ethyl-5-[3-(3-trifluoromethyl-phenyl)-1H-pyrazol-4-ylmethoxy]-2,3-dihydro-isoindol-1-one], the pEC50 was above 6.00.

As to `CCN1Cc2cc(OCc3c[nH]nc3-c3ccc(F)cc3)ccc2C1=O` [Example 559, 2-Ethyl-5-[3-(4-fluorophenyl)-1H-pyrazol-4-ylmethoxy]-2,3-dihydro-isoindol-1-one], the pEC50 was above 6.00.

On to `CCN1Cc2cc(OCc3c[nH]nc3-c3cccc(F)c3)ccc2C1=O` [Example 560, 2-Ethyl-5-[3-(3-fluorophenyl)-1H-pyrazol-4-ylmethoxy]-2,3-dihydro-isoindol-1-one], for which the pEC50 is above 6.00.

Consider `CCN1Cc2cc(OCc3c[nH]nc3-c3ccc(Cl)cc3)ccc2C1=O` [Example 562, 5-[3-(4-Chloro-phenyl)-1H-pyrazol-4-ylmethoxy]-2-ethyl-2,3-dihydro-isoindol-1-one], for which the negative logarithm of the EC50 (pEC50) is above 6.00.

Turning to `CCN1Cc2cc(OCc3c[nH]nc3-c3ccccc3)ccc2C1=O` [Example 563, 2-Ethyl-5-(3-phenyl-1H-pyrazol-4-ylmethoxy)-2,3-dihydro-isoindol-1-one], the pEC50 is above 6.00.

As to `O=C1c2ccc(OCc3c[nH]nc3-c3ccc(C(F)(F)F)cc3)cc2CN1CCBr` [Example 564, 2-(2-Bromo-ethyl)-5-[3-(4-trifluoromethyl-phenyl)-1H-pyrazol-4-ylmethoxy]-2,3-dihydro-isoindol-1-one], the negative-log EC50 (pEC50) was above 6.00.

As for `O=C1c2ccc(OCc3c[nH]nc3-c3cccc(C(F)(F)F)c3)cc2CN1CCBr` [Example 565, 2-(2-Bromo-ethyl)-5-[3-(3-trifluoromethyl-phenyl)-1H-pyrazol-4-ylmethoxy]-2,3-dihydro-isoindol-1-one], the pEC50 was above 6.00.

As for `O=C1c2ccc(OCc3c[nH]nc3-c3ccc(C(F)(F)F)cc3)cc2CN1CC(F)F` [Example 566, 2-(2,2-Difluoro-ethyl)-5-[3-(4-trifluoromethyl-phenyl)-1H-pyrazol-4-ylmethoxy]-2,3-dihydro-isoindol-1-one], the pEC50 is above 6.00.

For `O=C1c2ccc(OCc3c[nH]nc3-c3ccccc3)cc2CN1CC(F)F` [Example 567, 2-(2,2-Difluoro-ethyl)-5-(3-phenyl-1H-pyrazol-4-ylmethoxy)-2,3-dihydro-isoindol-1-one], the negative logarithm of the EC50 (pEC50) was above 6.00.

Regarding `O=C1c2ccc(OCc3c[nH]nc3-c3ccc(C(F)(F)F)cc3)cc2CN1CC(F)(F)F` [Example 568, 2-(2,2,2-Trifluoro-ethyl)-5-[3-(4-trifluoromethyl-phenyl)-1H-pyrazol-4-ylmethoxy]-2,3-dihydro-isoindol-1-one], the negative logarithm of the EC50 (pEC50) is above 6.00.

For the compound `O=C1c2ccc(OCc3c[nH]nc3-c3cccc(C(F)(F)F)c3)cc2CN1CC(F)(F)F` [Example 569, 2-(2,2,2-Trifluoro-ethyl)-5-[3-(3-trifluoromethyl-phenyl)-1H-pyrazol-4-ylmethoxy]-2,3-dihydro-isoindol-1-one], the pEC50 is above 6.00.

As for `O=C1c2ccc(OCc3c[nH]nc3-c3ccc(F)cc3)cc2CN1CC(F)(F)F` [Example 570, 5-[3-(4-Fluorophenyl)-1H-pyrazol-4-ylmethoxy]-2-(2,2,2-trifluoro-ethyl)-2,3-dihydro-isoindol-1-one], the pEC50 was above 6.00.

With `O=C1c2ccc(OCc3c[nH]nc3-c3cccc(F)c3)cc2CN1CC(F)(F)F` [Example 571, 5-[3-(3-Fluorophenyl)-1H-pyrazol-4-ylmethoxy]-2-(2,2,2-trifluoro-ethyl)-2,3-dihydro-isoindol-1-one], the negative-log EC50 (pEC50) is above 6.00.

Regarding `CN1Cc2cc(OCc3c[nH]nc3-c3ccc(C(F)(F)F)cc3)ccc2C1=O` [Example 573, 2-Methyl-5-[3-(4-trifluoromethyl-phenyl)-1H-pyrazol-4-ylmethoxy]-2,3-dihydro-isoindol-1-one], the negative logarithm of the EC50 (pEC50) is above 6.00.

In the case of `CCCN1CCc2cc(OCc3c[nH]nc3-c3ccc(C(F)(F)F)cc3)ccc2C1=O` [Example 574, 2-Propyl-6-[3-(4-trifluoromethyl-phenyl)-1H-pyrazol-4-ylmethoxy]-3,4-dihydro-2H-isoquinolin-1-one], the pEC50 was above 6.00.

For orientation: pEC50 means the negative decadic logarithm of the EC50, by convention in mol/L.
